Results reported in ChEMBL document CHEMBL1201862, “PubChem BioAssay data set” (2004).
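Where inhibition never reached the appropriate level, the endpoint shown equals the highest concentration tested. Otherwise, values were interpolated linearly from a five-concentration, 48-hour dose response in 96-well plates. GI50 = concentration required for 50% inhibition of growth.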 Active and inactive are the calls of the source. No stated cut-off is given here; in the data, active = GI50 up to about 1.1 µM and inactive = higher.

How the values were obtained:
Test in all cases: NCI anticancer screen, dose series, 48 h
[1] = tested on: SN12C
[2] = tested on: CCRF-CEM
[3] = tested on: Hs-578T
[4] = tested on: SR
[5] = tested on: CAKI-1
[6] = tested on: U-251
[7] = tested on: 786-0
[8] = tested on: MOLT-4
[9] = tested on: SNB-75
[10] = tested on: SW-620
[11] = tested on: OVCAR-5
[12] = tested on: NCI-H23
[13] = tested on: EKVX
[14] = tested on: LOX IMVI
[15] = tested on: MDA-MB-231
[16] = tested on: HCT-116
[17] = tested on: NCI-H460
[18] = tested on: ACHN
[19] = tested on: A498
[20] = tested on: PC-3

Measured: GI50

CCN(CC)S(=O)(=O)c1ccc2[nH]c(NC(=O)OC)nc2c1
inactive: [1] > 100 µM | [2] 25.9 µM | [3] > 100 µM | [4] 28.9 µM | [5] > 100 µM | [6] > 100 µM | [7] 64.4 µM | [8] 20.4 µM | [9] 42.6 µM | [10] 33.7 µM | [11] > 100 µM | [12] > 100 µM | [13] > 100 µM | [14] 42.6 µM | [15] > 100 µM | [16] 37.4 µM | [17] 49.2 µM

Cc1ccc2ccccc2c1NC1=NCCO1
inactive: [1] > 100 µM | [18] 76.6 µM | [2] 70.3 µM | [3] 24.9 µM | [4] 34.2 µM | [6] > 100 µM | [7] > 100 µM | [8] 34 µM | [9] > 100 µM | [10] > 100 µM | [11] > 100 µM | [12] 90.4 µM | [13] > 100 µM | [15] > 100 µM | [16] 45.5 µM | [17] 33.7 µM

CC1(C)Cc2c(cnn2-c2ccc(C(F)(F)F)cc2)-c2[nH]c(-c3ccc(O)cc3)nc21
inactive: [1] 16.7 µM | [18] 14.6 µM | [2] 2.18 µM | [19] 20.4 µM | [4] 4.71 µM | [5] 17.4 µM | [6] 12.3 µM | [7] 3.32 µM | [8] 2.05 µM | [9] 8.81 µM | [10] 14.5 µM | [11] 17.8 µM | [12] 18.2 µM | [20] 16 µM | [13] 20.4 µM | [14] 17.8 µM | [15] 22.3 µM | [16] 13.1 µM | [17] 14.4 µM

O=C(Nc1nc2ccc([N+](=O)[O-])cc2[n+]([O-])n1)C(F)(F)F
inactive: [1] 29.4 µM | [18] 22 µM | [2] 26.5 µM | [19] 29.6 µM | [4] 29.5 µM | [5] 57.3 µM | [6] 30.2 µM | [7] 36.1 µM | [8] 24.4 µM | [9] 46.2 µM | [10] 37.6 µM | [11] 41.8 µM | [12] 26.2 µM | [20] 28.2 µM | [15] 26.9 µM | [16] 19.8 µM | [17] 14.3 µM

Fc1ccc2c3c([nH]c2c1)CCN(Cc1ccccc1)C3
inactive: [1] 19.2 µM | [18] 22.8 µM | [2] 30.4 µM | [19] 17.8 µM | [3] 12 µM | [4] 18.3 µM | [6] 19.7 µM | [7] 16.1 µM | [8] 17.3 µM | [9] 16.9 µM | [10] 20.1 µM | [11] 19.9 µM | [12] 20.9 µM | [13] 20.9 µM | [14] 16.9 µM | [15] 24.3 µM | [16] 18.6 µM | [17] 17.3 µM

CCOC(=O)CCC(NC(=O)c1ccc(Nc2nc3ccc(C(F)(F)F)cc3nc2-c2ccccc2)cc1)C(=O)OCC (configuration not stated)
inactive: [1] > 100 µM | [18] > 73.6 µM | [2] 25.8 µM | [3] 24.4 µM | [4] 33.9 µM | [5] > 100 µM | [6] > 100 µM | [7] > 100 µM | [8] 22.1 µM | [9] > 100 µM | [10] > 100 µM | [11] > 92.9 µM | [12] 97.1 µM | [13] > 100 µM | [14] > 42 µM | [15] 21.6 µM | [16] > 100 µM | [17] 56.6 µM

COC1O[C@@H]2CCN3C(=O)[C@@H](OC(=O)c4ccc([N+](=O)[O-])cc4)[C@H]1C23 (some centres not stated)
inactive: [1] > 100 µM | [18] > 100 µM | [2] > 100 µM | [19] 64.7 µM | [3] > 100 µM | [4] > 100 µM | [5] > 100 µM | [6] > 100 µM | [7] > 100 µM | [8] > 100 µM | [9] > 100 µM | [10] > 100 µM | [11] > 100 µM | [12] > 100 µM | [13] > 100 µM | [14] > 100 µM | [15] > 100 µM | [16] > 100 µM | [17] > 100 µM

Cc1cc(S(N)(=O)=O)c(S/C(=N\Nc2ccc([N+](=O)[O-])cc2)c2ccc(Cl)cc2)cc1Cl
inactive: [1] 3.23 µM | [18] 2.96 µM | [2] 3.56 µM | [19] 4.32 µM | [3] 4.88 µM | [4] 2.94 µM | [5] 3.42 µM | [6] 2.25 µM | [7] 2.64 µM | [8] 4.1 µM | [9] 1.83 µM | [10] 3.22 µM | [11] 2.64 µM | [12] 2.25 µM | [13] 6.19 µM | [14] 2.1 µM | [15] 2.94 µM | [16] 3.15 µM | [17] 2.17 µM

O=C(Nc1ccc(Cl)cc1)c1cc(S(=O)(=O)Nc2n[nH]c(=O)n2-c2ccccc2)c(S)cc1Cl
inactive: [1] > 100 µM | [2] > 100 µM | [19] > 100 µM | [3] > 100 µM | [4] > 100 µM | [5] > 100 µM | [6] > 100 µM | [7] > 100 µM | [8] 6.22 µM | [10] > 100 µM | [11] > 100 µM | [12] > 100 µM | [13] > 100 µM | [14] > 100 µM | [15] > 100 µM | [16] > 100 µM | [17] > 100 µM

C=C(C)/C=C/C(O)[C@](C)(O)[C@H]1[C@H](O)C[C@@]2(C)[C@@H]3CCc4c(cc(OC5OC(CO)C(O)C(O)C5O)c(O)c4C)C3(C)C(=O)C[C@]12C (some centres not stated)
inactive: [1] > 100 µM | [18] > 100 µM | [2] > 100 µM | [19] > 100 µM | [4] > 100 µM | [5] > 100 µM | [6] > 100 µM | [7] > 100 µM | [8] > 100 µM | [9] > 100 µM | [10] > 100 µM | [11] > 100 µM | [12] 64.4 µM | [20] > 100 µM | [13] > 100 µM | [14] > 100 µM | [15] > 100 µM | [16] > 100 µM | [17] > 100 µM

c1ccc(CC2COC(c3cccs3)=N2)cc1 (configuration not stated)
inactive: [1] > 64.4 µM | [18] 78.5 µM | [2] 38.1 µM | [3] 49.5 µM | [4] 46.7 µM | [5] > 100 µM | [6] 53 µM | [7] > 100 µM | [8] 47.8 µM | [9] 42.6 µM | [10] > 100 µM | [11] > 100 µM | [12] > 79.8 µM | [13] 66.2 µM | [14] > 74.1 µM | [15] > 72.6 µM | [16] 54.7 µM | [17] > 86.5 µM
